Reference: patent publication US12209092B2, “Inhibitors of GLI1 as therapeutic agents” (NEW YORK UNIVERSITY, priority 2018, dated 2025)
Where two headings read alike, the source gives them in different places.

Tested on: Gli1-mediated transcription
Assay: Gli1-mediated transcriptional luciferase reporter assay
Type: cell-based
Conditions: Shh-LIGHT2 cells, antagonist mode, purmorphamine 1.5 μM stimulation, 24 h
Method: Gli1-mediated transcriptional luciferase reporter assay was performed using Shh-LIGHT2 cells in order to evaluate the effects on activation and inhibition of Gli1-mediated transcription by the compounds of the disclosure. Brief assay procedure is provided below. […] Shh-LIGHT2 cells were harvested from about 80% confluent 10-cm dish using 0.25% Trypsin-EDTA solution. Medium was removed, and cells were washed with 5 mL DPBS and aspirated. Then, 1 mL 0.25% Trypsin-EDTA solution was added to a 10-cm dish. The dish was placed in the incubator for 1-3 minutes, or until cells have detached. 3 mL of cell growth medium (DMEM, 10% FBS, 1% PenStrep, 1% sodium pyruvate, and 1% GlutaMax) was added to the 10-cm dish, and the contents were transferred to a conical tube. […] The cell assay plate was removed from incubator after cells reached confluency. The culture medium was then manually removed from the cell plates, and the plates were centrifuged at 200 rpm for 30 seconds. […] After 30 min incubation of antagonist, cells were stimulated with agonist (purmorphamine, 5 μL, 1.5 μM final), then incubate for 24 h at 37° C./5% CO2. […] Luciferase assay: After incubation, the cell assay plate was allowed to acclimate to room temperature. Then, 20 μL of Duo-Glo® Luciferase Reagent (Promega) was added to each well of cell assay plate. The plate was briefly spun down, mixed, and incubated for 30 minutes at room temperature. The cell plate was read using luminometer for firefly luminescence activity. Then, 20 μL of Duo-Glo® Step&Glo® Reagent (Promega) was added to each well of cell assay plate. The plate was briefly spun down, mixed, and incubated for 30 minutes at room temperature. The cell plate was read using luminometer for Renilla luminescence activity. Ratio of firefly: Renilla luminescence was calculated for each well. The compound well ratio was normalized to the ratio from a control well.

[1] = firefly luminescence, read-out: Gli1 IC50 firefly
[2] = ratio of firefly:Renilla luminescence, read-out: Gli1 IC50 firefly:Renilla ratio

| SMILES | IC50 [1] | IC50 [2] |
| --- | --- | --- |
| Cn1c(-c2ccc(C3CC3)cc2Cl)nc2c1CN(C1CCc3ccc(Cl)cc3C1)CC2 (stereo not shown) [Example 163, 5-(7-chloro-1,2,3,4-tetrahydronaphthalen-2-yl)-2-(2-chloro-4-cyclopropylphenyl)-3-methyl-4,5,6,7-tetrahydro-3H-imidazo[4,5-c]pyridine] | < 100 nM | < 100 nM |
| Cn1c(-c2ccc(C3CC3)cc2Cl)nc2c1CCN(C1CCc3ccc(Cl)cc3C1)C2 (stereo not shown) [Example 164, 5-(7-chloro-1,2,3,4-tetrahydronaphthalen-2-yl)-2-(2-chloro-4-cyclopropylphenyl)-1-methyl-4,5,6,7-tetrahydro-1H-imidazo[4,5-c]pyridine] | 100 to 490 nM | 100 to 490 nM |
| Clc1ccccc1-c1nc2c([nH]1)CC(N1CCc3cccc(Cl)c3C1)CC2 (stereo not shown) [Example 185, 8-chloro-2-(2-(2-chlorophenyl)-4,5,6,7-tetrahydro-1H-benzo[d]imidazol-6-yl)-1,2,3,4-tetrahydroisoquinoline] | < 100 nM | < 100 nM |
| Clc1ccccc1-c1nc2c([nH]1)C[C@@H](N1CCc3cccc(Cl)c3C1)CC2 [Example 185-S, (S)-8-chloro-2-(2-(2-chlorophenyl)-4,5,6,7-tetrahydro-1H-benzo[d]imidazol-6-yl)-1,2,3,4-tetrahydroisoquinoline] | 100 to 490 nM | < 100 nM |
| Clc1ccccc1-c1nc2c([nH]1)CC(N1Cc3cccc(Cl)c3C1)CC2 (stereo not shown) [Example 186, 6-(4-chloroisoindolin-2-yl)-2-(2-chlorophenyl)-4,5,6,7-tetrahydro-1H-benzo[d]imidazole] | < 100 nM | < 100 nM |
| Cn1c(-c2ccccc2Cl)nc2c1CC(N1CCc3cccc(Cl)c3C1)CC2 (stereo not shown) [Example 187, 8-chloro-2-(2-(2-chlorophenyl)-1-methyl-4,5,6,7-tetrahydro-1H-benzo[d]imidazol-6-yl)-1,2,3,4-tetrahydroisoquinoline] | < 100 nM | < 100 nM |
| Cn1c(-c2ccccc2Cl)nc2c1CCC(N1CCc3cccc(Cl)c3C1)C2 (stereo not shown) [Example 188, 8-chloro-2-(2-(2-chlorophenyl)-1-methyl-4,5,6,7-tetrahydro-1H-benzo[d]imidazol-5-yl)-1,2,3,4-tetrahydroisoquinoline] | < 100 nM | < 100 nM |
| Cn1c(-c2ccccc2Cl)nc2c1CC(N1Cc3cccc(Cl)c3C1)CC2 (stereo not shown) [Example 189, 6-(4-chloroisoindolin-2-yl)-2-(2-chlorophenyl)-1-methyl-4,5,6,7-tetrahydro-1H-benzo[d]imidazole] | < 100 nM | < 100 nM |
